The values below come from patent publication US12128040B2, “Selective estrogen receptor degraders” (Eli Lilly and Company, priority 2018, dated 2024).

SMILES strings stand for the structures.

Experiment [1] has as its system ERα receptor. The experiment in a line: PRα induction assay in MCF7 cells (ERα agonism). The format is cell-based. The note with it: Homo sapiens, 24 hours, agonist mode, read-out: Relative IC50 (μM), PRα induction. The procedure:
The purpose of the following PRα induction assay is to determine whether a test compound has agonistic activity against ERα receptor (an agonist would be expected to activate the receptor.)
Culture MCF7 (purchased from ATCC HTB-22) in DMEM media supplemented with 10% FBS, 0.01 mg/mL human insulin 1 and 1% penicillin/streptomycin antibiotics and plate the cells (prior to becoming 70% confluent) in 384-well flat-bottom plates at a density of 4,000 cells per well in 20 μL volume in DMEM phenol red free media containing 10% FBS (charcoal stripped). Incubate the cells overnight in a cell culture incubator (5% CO2, 95% relative humidity at 37° C.) and allow the cells to attach to the plate. The following day, dose the cells with test compound. Use an Echo 555 acoustic dispenser to prepare compound serial dilutions (1:3) in a range from 6 μM to 0.0003 μM. […]
The following day, wash cells with PBS 0.05% TWEEN® 20 (2×20 μL) and incubate with secondary antibody (20 μL/well) (1:1000 dilution, Goat anti-rabbit IgM ALEXA FLUOR™ 488) in PBS 1% BSA for 105 minutes at room temperature. […] Scan plates with ACUMEN EXPLORER™ [Laser-scanning fluorescence microplate cytometer manufactured by TTP LABTECH LTD] to measure progesterone receptor alpha. […]

Experiment [2] relates to ERα receptor. Briefly: PRα inhibition (ERα functional antagonism) cell assay in MCF7 cells. The experiment is classed as cell-based. The note with it: Homo sapiens, pretreated with 0.47 nM estradiol, n=15, read-out: Relative IC50 (nM), PRα inhibition. The text has this: The purpose of the following PRα inhibition (ERα functional antagonism) cell assay is to determine the antagonistic activity of a test compound against the ERα receptor. An antagonist in this assay is expected to block the function of the ERα receptor.
Carry out the assay conditions as detailed in the ERα degradation Cell base Acumen assay above, using the MCF7 cell line except that, prior to test compound dispensing, remove the media from the cell plate and pretreat all wells except for the negative control wells (column 24 of the plate) with assay media containing 0.47 nM estradiol for 30 minutes. In this assay, carry out immunostaining for the detection of PRα and scan the plates with ACUMEN EXPLORER™ [Laser-scanning fluorescence microplate cytometer manufactured by TTP LABTECH LTD] to measure PRα. Image analysis is based on cellular fluorescent signals for identifying positive cells. Identify PRα positive cells by mean intensity. Use total intensity at 575-640 from propidium iodide/DNA to identify individual cells. Assay output is % PRα positive cells. Determine the IC50 by curve fitting to a four parameter logistic for each output using GENE DATA™.

As usually defined, the IC50 is the midpoint of a concentration-inhibition curve. For `O=C(c1ccc(OCCN2CC(CF)C2)cc1)c1c(-c2ccc(C(F)(F)F)cc2F)cnc2cc(O)ccc12` [Example 1, (4-{2-[3-(Fluoromethyl)azetidin-1-yl]ethoxy}phenyl){3-[2-fluoro-4-(trifluoromethyl)phenyl]-7-hydroxyquinolin-4-yl}methanone], the IC50 with ERα receptor [1] was over 2 µM; in the experiment on ERα receptor [2] it was 15.8 ± 9.04 nM.
